In PubChem BioAssay (NCI):
Where “and” joins values, the source holds several entries; their conditions need not be identical. Equal entries are not always repeated.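 Compound exposure: 48 hours, 5 concentrations, 96-well plates. GI50 is the concentration that inhibits growth by half. At the TGI there is no net growth.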

Assays:
Assay in all cases: DTP human tumour cell line panel, 48 h
CCRF-CEM leukemia = tested on: CCRF-CEM leukemia
CAKI-1 renal = tested on: CAKI-1 renal
OVCAR-4 ovarian = tested on: OVCAR-4 ovarian
SK-MEL-28 melanoma = tested on: SK-MEL-28 melanoma
SNB-75 CNS = tested on: SNB-75 CNS
UACC-257 melanoma = tested on: UACC-257 melanoma
HCT-15 colon = tested on: HCT-15 colon
SNB-19 CNS = tested on: SNB-19 CNS
OVCAR-5 ovarian = tested on: OVCAR-5 ovarian
HCT-116 colon = tested on: HCT-116 colon

Compound	GI50 (CCRF-CEM leukemia)	TGI (CCRF-CEM leukemia)	GI50 (CAKI-1 renal)	TGI (CAKI-1 renal)	GI50 (OVCAR-4 ovarian)	TGI (OVCAR-4 ovarian) [µM]	GI50 (SK-MEL-28 melanoma)	TGI (SK-MEL-28 melanoma)	GI50 (SNB-75 CNS)	TGI (SNB-75 CNS)	GI50 (UACC-257 melanoma)	TGI (UACC-257 melanoma)	GI50 (HCT-15 colon)	TGI (HCT-15 colon)	GI50 (SNB-19 CNS)	TGI (SNB-19 CNS) [µM]	GI50 (OVCAR-5 ovarian)	TGI (OVCAR-5 ovarian) [µM]	GI50 (HCT-116 colon)	TGI (HCT-116 colon)
O=C(N/N=C/c1coc2ccc(Cl)cc2c1=O)c1cc(O)c(O)c(O)c1	33.2 µM	> 100 µM	25 µM	70 µM	98.4 µM	> 100	65.7 µM	> 100 µM	72 µM	> 100 µM	39.9 µM	> 100 µM	21.5 µM	79.7 µM	72.8 µM	> 100	24.6 µM	74.9	19.3 µM	70 µM
COc1cc2c(cc1OCCCN1CCN(CCCOc3cc4c(cc3OC)C(=O)N3C[C@H](F)C[C@H]3C=N4)CC1)N=C[C@@H]1C[C@@H](F)CN1C2=O	< 0.01 µM	1.49 µM	0.0683 µM	2 µM	0.386 µM	22.6	0.0713 µM	0.343 µM	0.0338 µM	0.594 µM	0.127 µM	0.363 µM	2.15 µM	12.9 µM	0.758 µM	> 41.6	0.198 µM	3.24	0.034 µM	0.252 µM
CCOC(=O)c1ccc(N[C@@H]2c3cc4c(cc3C(c3cc(OC)c(O)c(OC)c3)[C@H]3C(=O)OCC32)OCO4)cc1 (stereo partly specified)	0.116 µM	0.925 µM and 1.81 µM	0.109 µM	0.854 µM and 3.88 µM		12.6	0.935 µM	8.59 µM	0.308 µM	0.909 µM and 4.98 µM		25 µM		6.17 µM	0.261 µM	22.2	0.646 µM	6.16	0.835 µM	10.5 µM
CCOC(=O)c1nc2sc(Cl)cn2c1/C=N/N=C(N)N	25.2 µM	> 64.2 µM	27 µM	> 76.9 µM	30.3 µM	> 100	18.2 µM	51 µM	27.9 µM	68.8 µM	35.8 µM	> 86 µM	26.8 µM	> 75.2 µM	30 µM	> 100	20.7 µM	49.5	18 µM	40.8 µM
C=CCN=C1NC(=O)C(CC(=O)Nc2ccc([N+](=O)[O-])cc2[N+](=O)[O-])S1 (stereo unspecified)		> 100 µM		> 100 µM		> 100		> 100 µM		> 100 µM		> 100 µM		> 100 µM		> 100		> 100		> 100 µM
COc1ccc(C)cc1-c1ccc(-c2cc(C)ccc2OC)o1		> 100 µM		> 100 µM		> 100		> 100 µM		> 100 µM		> 100 µM		> 100 µM		> 100		> 100		> 100 µM
O=[N+]([O-])c1cc2c(ccc3ccccc32)o1	0.47 µM	> 35.6 µM	0.31 µM	3.06 µM	1.76 µM	11	0.21 µM	0.585 µM	0.497 µM	2.27 µM	0.188 µM	0.417 µM	0.345 µM	2.35 µM	0.966 µM	> 35.4	1.53 µM	12.6	0.215 µM	0.855 µM
O=C(Nc1ccc(Br)cc1)c1cc(Br)ccc1O	0.862 µM and 0.752 µM		0.333 µM and 1.21 µM	2.49 µM and 5.62 µM	0.452 µM and 1.17 µM	> 100	0.314 µM and 1.44 µM	2.17 µM and 5.14 µM	0.348 µM and 1.34 µM	3.07 µM and 14.3 µM	0.455 µM and 2.73 µM	3.58 µM and 8.43 µM	0.483 µM and 0.779 µM	4.01 µM and 7.35 µM	0.339 µM and 1 µM	> 93.1	1.75 µM and 4.79 µM	> 92.4	0.354 µM and 1.45 µM	1.56 µM and 3.56 µM
O=C1C=CC(=O)N1c1ccc2ccccc2c1	2.09 µM	7.94 µM	4.65 µM	17.8 µM	8.92 µM	34.1	16.8 µM	34 µM	16.6 µM	38.4 µM	10.5 µM	22.7 µM	16.5 µM	33.1 µM	38.4 µM	> 100	17.9 µM	34	3.93 µM	12.4 µM
O=C(NCCc1nccs1)c1cnc2c(S)cccc2c1	1.77 µM	> 100 µM	3.22 µM	37.4 µM	2.72 µM	34	3.5 µM	> 100 µM	2.78 µM	17.6 µM	3.77 µM	15.3 µM	3.49 µM	88.6 µM	3.41 µM	33.1	10 µM	41.6	1.13 µM	10.2 µM
COC(=O)N1C=CC2=C(C)C3Nc4ccccc4C3C(C)=C2C1 (stereo unspecified)		15.9 µM		> 100 µM		11.3		> 100 µM		9.54 µM		14.3 µM		33.6 µM		> 100		> 100		2.57 µM
COc1cccc2c1C(=O)c1c(O)c3c(c(O)c1C2=O)C[C@@](O)(C(=O)CO)C[C@@H]3OC1CC2C(OCN2CN2COC3C(C)OC(O[C@H]4C[C@](O)(C(=O)CO)Cc5c(O)c6c(c(O)c54)C(=O)c4c(OC)cccc4C6=O)CC32)C(C)O1 (stereo partly specified)	0.000537 µM	0.0221 µM	0.000878 µM	0.00708 µM	0.0222 µM	0.0593	0.016 µM	0.0378 µM	0.00419 µM	0.0149 µM	0.0015 µM	0.0208 µM	0.0278 µM	> 1 µM	0.00292 µM	0.0256	0.0304 µM	> 0.264	0.00564 µM	> 0.39 µM
O=C1OC(=O)c2c1cc1cc3c(cc1c2-c1ccc2c(c1)OCO2)OCO3		> 100 µM		> 100 µM		> 100		> 100 µM		> 100 µM		> 100 µM		> 100 µM		> 100		> 100		> 100 µM
